Our source for the IC50 and Inhibition values is ChEMBL document CHEMBL1124634, “Synthesis and antirhinovirus activity of 6-(dimethylamino)-2-(trifluoromethyl)-9-(substituted benzyl)-9H-purines” (J Med Chem, 1989).

Assay [1] deals with Human rhinovirus sp. In words: Antiviral activity against rhinoviral-1B serotype in a plaque inhibition assay using monolayers of M-HeLa cells. In kind it is functional, organism-based.
The test system of assay [2] is Human rhinovirus sp. In words: Percent inhibitory activity at 8 uM against rhinoviral 21 serotype in a plaque inhibition assay using monolayers of M-HeLa cells. In kind it is functional.
Assay [3] relates to Human rhinovirus sp. Nature of the assay: Antiviral activity against rhinoviral 14 serotype in a plaque inhibition assay using monolayers of M-HeLa cells. The format is functional, organism-based.
Assay [4] deals with Human rhinovirus sp. Nature of the assay: Antiviral activity against rhinoviral 5 serotype in a plaque inhibition assay using monolayers of M-HeLa cells. The format is functional, organism-based.
Assay [5] has as its system Human rhinovirus sp. In words: Antiviral activity against rhinoviral 31 serotype in a plaque inhibition assay using monolayers of M-HeLa cells. The format is functional, organism-based.
In assay [6] the test system is Human rhinovirus sp. In words: Antiviral activity against rhinoviral-18 serotype in a plaque inhibition assay using monolayers of M-HeLa cells. In kind it is functional, organism-based.
Assay [7] concerns Human rhinovirus sp. Nature of the assay: Antiviral activity against rhinoviral 16 serotype in a plaque inhibition assay using monolayers of M-HeLa cells. In kind it is functional, organism-based.
Assay [8] deals with Human rhinovirus sp. Nature of the assay: Antiviral activity against rhinoviral 30 serotype in a plaque inhibition assay using monolayers of M-HeLa cells. The format is functional, organism-based.
Assay [9] concerns Human rhinovirus sp. Nature of the assay: Antiviral activity against rhinoviral 4 serotype in a plaque inhibition assay using monolayers of M-HeLa cells. The format is functional, organism-based.
In assay [10] the test system is Human rhinovirus sp. Nature of the assay: Antiviral activity against rhinoviral 29 serotype in a plaque inhibition assay using monolayers of M-HeLa cells. The format is functional, organism-based.
Assay [11] deals with Human rhinovirus sp. In words: Percent inhibitory activity at 8 uM against rhinoviral 3 serotype in a plaque inhibition assay using monolayers of M-HeLa cells. In kind it is functional.
In assay [12] the test system is Human rhinovirus sp. In words: Antiviral activity against rhinoviral 2 serotype in a plaque inhibition assay using monolayers of M-HeLa cells. The format is functional, organism-based.
Assay [13] has as its system Human rhinovirus sp. In words: Antiviral activity against rhinoviral 12 serotype in a plaque inhibition assay using monolayers of M-HeLa cells. The format is functional, organism-based.
The test system of assay [14] is Human rhinovirus sp. Nature of the assay: Antiviral activity against rhinoviral-1A serotype in a plaque inhibition assay using monolayers of M-HeLa cells. In kind it is functional, organism-based.
In assay [15] the test system is Human rhinovirus sp. Nature of the assay: Antiviral activity against rhinoviral 8 serotype in a plaque inhibition assay using monolayers of M-HeLa cells. The format is functional, organism-based.
In assay [16] the test system is Human rhinovirus sp. Nature of the assay: Antiviral activity against rhinoviral 9 serotype in a plaque inhibition assay using monolayers of M-HeLa cells. In kind it is functional, organism-based.
Assay [17] deals with Human rhinovirus sp. Nature of the assay: Percent inhibitory activity at 8 uM against rhinoviral 13 serotype in a plaque inhibition assay using monolayers of M-HeLa cells. In kind it is functional.
Assay [18] has as its system Human rhinovirus sp. In words: Antiviral activity against rhinoviral 15 serotype in a plaque inhibition assay using monolayers of M-HeLa cells. In kind it is functional, organism-based.
The test system of assay [19] is Human rhinovirus sp. In words: Antiviral activity against rhinoviral-19 serotype in a plaque inhibition assay using monolayers of M-HeLa cells. In kind it is functional, organism-based.
The subject of assay [20] is Human rhinovirus sp. In words: Percent inhibitory activity at 8 uM against rhinoviral 19s erotype in a plaque inhibition assay using monolayers of M-HeLa cells. In kind it is functional.
In assay [21] the test system is Human rhinovirus sp. In words: Antiviral activity against rhinoviral 3 serotype in a plaque inhibition assay using monolayers of M-HeLa cells. The format is functional, organism-based.
Assay [22] has as its system Human rhinovirus sp. In words: Percent inhibitory activity at 8 uM against rhinoviral 15 serotype in a plaque inhibition assay using monolayers of M-HeLa cells. The format is functional.
Assay [23] has as its system Human rhinovirus sp. Nature of the assay: Percent inhibitory activity at 8 uM against rhinoviral 30 serotype in a plaque inhibition assay using monolayers of M-HeLa cells. In kind it is functional.
Assay [24] relates to Human rhinovirus sp. Nature of the assay: Percent inhibitory activity at 8 uM against rhinoviral 31 serotype in a plaque inhibition assay using monolayers of M-HeLa cells. The format is functional.
Assay [25] deals with Human rhinovirus sp. Nature of the assay: Percent inhibitory activity at 8 uM against rhinoviral 5 serotype in a plaque inhibition assay using monolayers of M-HeLa cells. In kind it is functional.
Assay [26] concerns Human rhinovirus sp. In words: Antiviral activity against rhinoviral 18 serotype in a plaque inhibition assay using monolayers of M-HeLa cells. In kind it is functional, organism-based.
Assay [27] deals with Human rhinovirus sp. In words: Antiviral activity against rhinoviral 21 serotype in a plaque inhibition assay using monolayers of M-HeLa cells. In kind it is functional, organism-based.
Assay [28] relates to Human rhinovirus sp. Nature of the assay: Percent inhibitory activity at 8 uM against rhinoviral 14 serotype in a plaque inhibition assay using monolayers of M-HeLa cells. The format is functional.

With `CN(C)c1nc(C(F)(F)F)nc2c1ncn2Cc1ccc(Cl)c([N+](=O)[O-])c1`, the IC50 (in general, the concentration needed to halve the response being measured) in assay [1] came out at 2.1 µM.
The same measure, in the same setting: next, `CN(C)c1nc(C(F)(F)F)nc2c1ncn2Cc1ccc(C#N)cc1`: 0.3 µM; `CN(C)c1nc(C(F)(F)F)nc2c1ncn2Cc1ccccc1N`: 1.7 µM; `COc1cc(Cn2cnc3c(N(C)C)nc(C(F)(F)F)nc32)ccc1C`: greater than 1 µM.
Still for that read-out and setting: the value for `COc1ccccc1Cn1cnc2c(N(C)C)nc(C(F)(F)F)nc21` was 5.6 µM.
Turning to `CN(C)c1nc(C(F)(F)F)nc2c1ncn2Cc1ccc(Cl)c(Cl)c1`, the Inhibition (in general, the relative decrease from the control value, in per cent) in assay [2] worked out at 29%; in assay [11], 40%; in [17] it was 23%. The half-inhibitory concentration (IC50) in assay [3] is 10 µM; in [4], greater than 8 µM; in assay [5] it was 13 µM; in assay [6] it was 8.1 µM; in assay [7], 0.74 µM; in assay [8] it was 7.5 µM. Also, the IC50 in assay [9] was 8.4 µM; in [1], 0.12 µM; in assay [10] it was 4.8 µM; in [12] it was 6.1 µM; in assay [13], 5.1 µM; in assay [14], 0.73 µM. Also, the half-inhibitory concentration (IC50) in assay [15] is 11 µM; in [16], 0.71 µM; in assay [18], 3.7 µM; in [19], 5.4 µM.
Regarding `CN(C)c1nc(C(F)(F)F)nc2c1ncn2Cc1ccccc1F`, the IC50 in assay [1] worked out at 0.15 µM.
Same read-out and setting: next, `Cc1cc(C)cc(Cn2cnc3c(N(C)C)nc(C(F)(F)F)nc32)c1`: greater than 1.3 µM; `CN(C)c1nc(C(F)(F)F)nc2c1ncn2Cc1ccc(CN)cc1`: 0.2 µM.
Still for that read-out and setting: the value for `CN(C)c1nc(C(F)(F)F)nc2c1ncn2Cc1cccc(Br)c1` was 0.06 µM.
`CN(C)c1nc(C(F)(F)F)nc2c1ncn2Cc1cccc(NC=O)c1` came in with an IC50 in assay [1] of 0.74 µM.
The same measure, in the same setting: next, `CCCCc1ccc(Cn2cnc3c(N(C)C)nc(C(F)(F)F)nc32)cc1`: 0.78 µM; `CN(C)c1cc(Cl)ccc1Cn1cnc2c(N(C)C)nc(C(F)(F)F)nc21`: 180 µM.
Still for that read-out and setting: the value for `CN(C)c1nc(C(F)(F)F)nc2c1ncn2Cc1ccc(Cl)cc1N` was 0.47 µM; that for `CN(C)c1nc(C(F)(F)F)nc2c1ncn2Cc1ccc(OCc2ccccc2)cc1` was 4.4 µM; that for `CN(C)c1nc(C(F)(F)F)nc2c1ncn2Cc1ccc(-c2ccccc2)cc1` was 14 µM.
The same measure, in the same setting: next, `CN(C)c1cc(Cn2cnc3c(N(C)C)nc(C(F)(F)F)nc32)ccc1Cl`: greater than 0.2 µM.
Turning to `COc1cc(Cn2cnc3c(N(C)C)nc(C(F)(F)F)nc32)ccc1Cl`, in assay [1], it took 0.68 µM to reach half-maximal inhibition (IC50).
`CN(C)c1nc(C(F)(F)F)nc2c1ncn2Cc1cccc(O)c1` displayed an IC50 in assay [1] of 0.95 µM.
Turning to `CN(C)c1nc(C(F)(F)F)nc2c1ncn2Cc1ccccc1Cl`, the Inhibition in [20] is 27%; in assay [2] it was 38%; in assay [22], 30%; in assay [23] it was 31%; in assay [24], 38%; in assay [25] it was 24%. In assay [17], this molecule registered an Inhibition of 24%. Further, the IC50 in assay [3] came out at 8 µM; in assay [6], 13 µM; in [21], 9 µM; in assay [7], 4.3 µM; in [9], 10 µM; in assay [1], 0.2 µM. The IC50 in [10] was 4.2 µM; in [12], 9.4 µM; in assay [13], 8.1 µM; in assay [14], 4 µM; in [15], 7.9 µM; in [16], 1.9 µM.
Regarding `CN(C)c1nc(C(F)(F)F)nc2c1ncn2Cc1ccc(NC=O)cc1`, the IC50 in [1] was determined as 0.18 µM.
`CN(C)c1nc(C(F)(F)F)nc2c1ncn2Cc1ccccc1[N+](=O)[O-]` registered an IC50 in assay [1] of 280 µM.
On the same count and under the same terms, the value for `COc1cc(Cl)ccc1Cn1cnc2c(N(C)C)nc(C(F)(F)F)nc21` was 135 µM.
`CN(C)c1nc(C(F)(F)F)nc2c1ncn2Cc1ccc(Br)cc1`: the Inhibition turned out to be 27% in [20], 37% in assay [25] and 40% in [17]. Further, the 50% inhibitory concentration (IC50) in assay [3] worked out at 8.1 µM; in assay [5] it was 5.5 µM; in [21], 8 µM; in assay [7] it was 1.2 µM; in [8], 4.6 µM; in assay [26], 7.5 µM. Moreover, the half-inhibitory concentration (IC50) amounted to 7.6 µM in [9]; 0.03 µM in [1]; 3.2 µM in assay [10]; 7.3 µM in [12]; 5 µM in assay [27]; 9.5 µM in assay [13]. Also, the IC50 worked out at 0.76 µM in [14], 8.3 µM in assay [15], 0.7 µM in [16] and 5.7 µM in assay [18].
Turning to `CN(C)c1nc(C(F)(F)F)nc2c1ncn2Cc1ccc(N)cc1`, in [1], it took 0.13 µM to reach half-maximal inhibition (IC50).
Same read-out and setting: next, `CN(C)c1nc(C(F)(F)F)nc2c1ncn2Cc1cccc([N+](=O)[O-])c1`: 0.13 µM.
In the case of `CC(C)Oc1ccc(Cn2cnc3c(N(C)C)nc(C(F)(F)F)nc32)cc1`, the Inhibition turned out to be 33% in assay [20]; 40% in [2]; 40% in [22]; 22% in [28]; 39% in [17]. Also, the IC50 in assay [4] was determined as 11 µM; in assay [5] it was 4.2 µM; in [21], 8 µM; in assay [7], 2.1 µM; in assay [8] it was 6.6 µM; in assay [26], 6.8 µM. Further, the IC50 in assay [9] turned out to be 3.7 µM; in assay [1] it was 1 µM; in assay [10] it was 2.5 µM; in assay [12] it was 5.2 µM; in [13], 10 µM; in assay [14], 2.8 µM. In addition, the values for the IC50 in assay [15] and in assay [16] were 10 µM and 1.5 µM, respectively.
`CN(C)c1nc(C(F)(F)F)nc2c1ncn2Cc1cccc(C(=O)O)c1` yielded a half-maximal inhibitory concentration (IC50) in assay [1] of 4.6 µM.
Same read-out and setting: the value for `CCCCOc1ccc(Cn2cnc3c(N(C)C)nc(C(F)(F)F)nc32)cc1` was 2.1 µM; that for `CN(C)c1nc(C(F)(F)F)nc2c1ncn2Cc1ccc(Cl)cc1NC=O` was 6.9 µM; that for `COc1cc(C)ccc1Cn1cnc2c(N(C)C)nc(C(F)(F)F)nc21` was 70 µM.
On the same count and under the same terms, the value for `CN(C)c1nc(C(F)(F)F)nc2c1ncn2Cc1cccc(N)c1` was 0.3 µM.
Still for that read-out and setting: the value for `CC(=O)Nc1ccc(Cn2cnc3c(N(C)C)nc(C(F)(F)F)nc32)cc1` was 0.37 µM; that for `CN(C)c1nc(C(F)(F)F)nc2c1ncn2Cc1ccc(C(=O)O)cc1` was 4.6 µM; that for `CCOC(=O)c1ccc(Cn2cnc3c(N(C)C)nc(C(F)(F)F)nc32)cc1` was 5 µM.
The molecule `CN(C)c1cccc(Cn2cnc3c(N(C)C)nc(C(F)(F)F)nc32)c1` gave a 50% inhibitory concentration (IC50) in assay [1] of 0.25 µM.
Still for that read-out and setting: the value for `CN(C)c1nc(C(F)(F)F)nc2c1ncn2Cc1cccc(OCc2ccccc2)c1` was 1.1 µM; that for `CN(C)c1nc(C(F)(F)F)nc2c1ncn2Cc1ccc(CO)cc1` was 0.2 µM; that for `CN(C)c1nc(C(F)(F)F)nc2c1ncn2Cc1ccc(O)cc1` was 0.17 µM.
On the same count and under the same terms, the value for `COC(=O)c1cccc(Cn2cnc3c(N(C)C)nc(C(F)(F)F)nc32)c1` was 2.6 µM; that for `CN(C)c1nc(C(F)(F)F)nc2c1ncn2Cc1ccc(Cl)cc1[N+](=O)[O-]` was 0.53 µM; that for `COc1cccc(Cn2cnc3c(N(C)C)nc(C(F)(F)F)nc32)c1` was 0.1 µM.
